Entries after “also recorded” stand apart in the source; their conditions may differ.

This is an account of results in US20050197286A1, “Method for control of depression using c terminal growth hormone (gh) fragment” (priority 2002, published 2005).

For data set [1], the system named is patients suffering from growth hormone deficiency. The conditions noted are these: several studies, references 1-24; cited from earlier work.
The next data set has as its system healthy lean males. The format is in vivo, human. Here is the method:
The selection of 25, 50 and 100 μg/kg doses of AOD9604 used in this study was based on the results from a previous Phase I study, conducted from February-June 2001, in healthy lean males using a dose range of 25-400 μg/kg AOD9604.

Data set [2] concerns obese adult male subjects. Nature of the data set: Double-blind single oral dose study of AOD9604 (Example 2, Phase 2A). The format is in vivo, human. An excerpt: The objective of this study was to characterise the safety, tolerability, pharmacodynamic and pharmacokinetic effects of AOD9604 following single oral administration to obese adult male subjects.
The study was a double-blind, placebo controlled, 4×4 Williams Latin Square design, single oral dose study, planned to include 16 subjects. Each subject received active study drug on each of three occasions and placebo on one occasion. There was a washout period of 14 days between the doses administered in each study period.
Eligibility criteria were the same as for Example 1, except that the age range of the subjects was 35 to 60 years of age inclusive.
There were four study treatments, and each subject received each of the four treatments on four separate occasions, separated by a fourteen day wash out period. The dose strengths were as follows: • 10 mg (76.9 μg/kg for 130 kg subject); • 30 mg (230.8 μg/kg for 130 kg subject); • 60 mg (461.5 μg/kg for 130 kg subject); and • placebo.
The active pharmaceutical formulation was Size-0 capsules (Shionogi Qualicaps Co. Ltd.) of 10 mg AOD9604 containing 3.9% AOD9604, 84.1% Mannitol (USP) and 12% PEG3350, USP. Placebo capsules contained excipients only.
For each treatment, capsules were administered orally with 240 mL of room temperature water following at least a 12 hour overnight fast. Study personnel inspected the oral cavity to confirm that the subject has ingested the study treatment following each dose.
In the Phase 2A single dose intravenous trial, reported in Example 1, mild euphoria was reported by several patients who received drug and none who received placebo. The patients taking part in this single dose oral treatment were therefore asked to complete the Nottingham Health Profile questionnaire (see Wiklund I. (1990) The Nottingham Health Profile—a measure of health-related quality of life. Scand. J. Prim. Health Care Suppl. 1:15-8) before dose and 7 days after dose.

The test system of data set [3] is obese adult male subjects. As to the kind of experiment: Double-blind multiple oral dose escalation study of AOD9604 (Example 3, Phase 2A). The format is in vivo, human. An excerpt: The objective of this study was to characterise the safety and tolerability and the pharmacodynamic profile of AOD9604 following multiple oral administration to obese adult male subjects.
This was a double-blind, placebo-controlled, 3 period, oral dose, dose escalation study with randomization directed such that each subject received 7 doses of active study drug or placebo over one 7-day period, i.e. one dose per day for 7 days. There were up to three dose levels of AOD9604 and placebo studied in 3 cohorts of 12 subjects each. In each study period, 12 subjects were randomised so that 9 received active study drug and 3 received placebo. There was a period of 7 days between study periods to allow for appropriate safety review and permission to progress to the next dose level.
The eligibility criteria of subjects were as for Example 2, except that the age range was 18 to 60 years of age, and the BMI threshold was ≧30 kg/m^2, since the primary aim of the study was safety assessment. The restrictions on the subjects and the conduct of the study again were generally as in Example 2.
There were three study periods, and the dose strengths used were 10 mg, 30 mg, 60 mg and placebo, with seven doses per study period. The formulation of AOD9604 and placebo were as for Example 2.
For each treatment, capsules were administered orally every day for 7 days with 240 mL of room temperature water following at least a 12 hour overnight fast.
The patients were asked to complete the SF-36 Quality of Life Questionnaire (Ware J. J. and Sherbourne C. D. (1992) The MOS 36-item short-form health survey (SF-36). I. Conceptual framework and item selection. Medical Care; 30:473-83) at days 0, 8 and 14. The results are illustrated in FIG. 2, A and B and FIG. 3, A and B. The SF-36 questionnaire is different to the questionnaire used in the Phase 2A […] single dose trial of Example 2. SF-36 provides only positive numerical values for mood assessment, with higher values indicating greater happiness, and lower values indicating lower happiness. (The graphs in FIGS. 2 and 3 however do have some negative values because they are representing the change in mood from pre-treatment.) FIGS. 2 and 3 show a similar bell-shaped dose response on mood as that observed in Example 1 (only it is a reversed bell-shape in comparison to Example 1). […] There was an improvement in the mental aggregate scores, relative to placebo, at the 10 mg dose on day 8, and a worsening at the 30 mg and 60 mg doses relative to placebo.

Data set [4] deals with obese adult male subjects. As to the kind of experiment: Double-blind, placebo-controlled single intravenous dose study of AOD9604 (Example 1). The format is in vivo, human. Here is the method: The objective of this study was to characterise the safety, tolerability and pharmacodynamic effects of AOD9604 following single intravenous administration to obese adult male subjects. The study was performed by CMAX Pty Ltd under contract to Metabolic Pharmaceuticals Ltd.
The study was designed as a double-blind, placebo-controlled, 4×4 Williams Latin Square design, intravenous dose study included twenty four (obese Body mass index (BMI) of ≧35 kg/m^2 and a waist circumference of ≧110 cm) adult subjects with each subject receiving active study drug on each of three occasions and placebo on one occasion. Treatment allocation was randomised according to a Master Randomisation Schedule.
Subjects who provided written informed consent and who met all inclusion/exclusion criteria were randomised to receive each of the four treatments according to the study Master Randomisation Schedule. The subjects were randomised to receive a single dose of 25, 50 and 100 μg/kg AOD9604 and a single dose of placebo (5% mannitol solution) over the four periods of the study. Dose administration was by intravenous infusion, and was conducted over a period of 10 minutes.
During each in-clinic stay, blood samples were collected at specified times both prior to and following dose administration for the determination of pharmacodynamic parameters of non-esterified fatty acids (NEFA), glycerol, glucose and IGF-1. For the purposes of safety monitoring, the physical condition (physical examination, blood pressure, pulse, temperature and general well being) of the subjects was monitored both prior to and at specified intervals during each study period. ECG monitoring was performed prior to the infusion, at the end of the infusion and at specified times following the end of the infusion. Blood samples were also collected for assessment of haematological and biochemical parameters. Subjects were released from the clinic following the 24 hour post-dose blood sample and physical examination. Subjects returned to the clinic for the following period after a 7-day washout period. Within 14 days of the final period (Period 4), an Exit Evaluation was performed, involving the following assessments: physical examination (including ECG monitoring), body height and weight determination, vital sign measurements, questions regarding adverse events, collection of blood samples for the assessment of haematological and biochemical parameters, and collection of a urine sample for urinalysis and microscopy. A further 5 mL blood sample was collected and the serum stored for possible antibody analysis to be done at a later date.
Treatment A: A single dose of 25 μg/kg AOD9604 administered intravenously via an infusion pump over a 10 minute period.
Treatment B: A single dose of 50 μg/kg AOD9604 administered intravenously via an infusion pump over a 10 minute period.
Treatment C: A single dose of 100 μg/kg AOD9604 administered intravenously via an infusion pump over a 10 minute period.
Each subject received one of each of three doses of the active study drug, AOD9604 (25, 50, and 100 μg/kg) on three occasions and a placebo on one occasion. The doses were administered as intravenous infusions of 10 minute duration with a wash-out period of 7 days between each consecutive treatment. Subjects were not permitted to eat or drink anything, except for water, for at least 10 hours prior to and 2 hours following administration of the dose. Meals were timed in relation to the end of dosing, as follows: Snack (2 hours and 5 minutes), Lunch (4 hours and 5 minutes), Dinner (10 hours and 5 minutes) and Snack (13 hours and 5 minutes).

The next data set relates to C57Bl/6J (Ob/Ob) mouse. To be noted: Australian patent No. 693478; cited from earlier work.
The mark [5] stands for this setting: single iv infusion 25, 50 or 100 μg/kg, only in periods with active drug, none with placebo.

Turning to “Intact growth hormone: intact growth hormone, the full hormone from which the C-terminal fragments derive”, the effect on mood entry in data set [1] was “positive effects on mood”.

Regarding Tyr-hGH 177-191 [AOD9604], the “pharmacodynamic response at 50 μg/kg” value in the data set with healthy lean males (50 μg/kg) is on record as “a response had been shown”. In addition, in the data set on healthy lean males (dose increased to 200 μg/kg and higher), the “pharmacodynamic response at high dose” value is on record as “response diminished”. In addition, the pharmacodynamic response result with healthy lean males (iv dose range 25-400 μg/kg) is reported as “A pharmacodynamic response was seen”. In data set [2] (30 mg single oral dose, lower is happier), the “mood, Nottingham Health Profile questionnaire, response by dose” value is “greatest response”. In addition, in data set [2] (1, 2 and 4 hours after AOD9604 27.6 mg oral, p<0.05), the “non-esterified fatty acid (NEFA) levels compared to placebo” value is “statistically significantly increased”. The NEFA response result in data set [2] (AOD9604 55.2 mg oral, compared with 27.6 mg) was “lower response”. Besides, the “mood, Nottingham Health Profile questionnaire” value in data set [2] (before dose vs 7 days after dose, all single oral doses (10, 30, 60 mg), placebo worsened) is listed as “improvement of mood”. For the same substance, in data set [2] (over the oral dose range 10-60 mg single dose), the tolerability result is reported as “well tolerated”. In data set [2] (single oral doses), the “incidence of adverse events, active vs placebo” value was “no observable trends”; the “vital signs, ECG, physical examination and clinical laboratory assessments” value is given as “no clinically significant changes”. Besides, the gastrointestinal adverse effects entry in data set [3] (60 mg dose group, particularly in the hour after dose) is given as “increase in mild gastrointestinal effects”. Further, the “significance of body weight effect in subgroup” value in data set [3] (age 35+ and BMI 35+ group, p<0.05) is “statistically significant”. Besides, the “SF-36 mental aggregate relative to placebo, all doses” value in data set [3] (at 8 days vs day 0, 10, 30, 60 mg/day oral for 7 days) is on record as “improvement in the mental aggregate for all doses relative to placebo”. Also, the “significance of SF-36 improvement at 10 mg” value in data set [3] (at 8 days, 10 mg/day oral, p<0.05) was “statistically significant”. For the same substance, the “SF-36 physical aggregate relative to placebo” value in data set [3] (at 14 days, dose 60 mg/day, only aggregate/dose worse than placebo) is reported as “worse result that the placebo”. Also, the “SF-36 mental aggregate scores relative to placebo, 10 mg” value in data set [3] (day 8, 10 mg/day oral) was “improvement”. In addition, the “SF-36 mental aggregate scores relative to placebo, 30 mg and 60 mg” value in data set [3] (day 8, 30 mg and 60 mg/day oral) is on record as “worsening”. Besides, the “body weight difference (anti-obesity effect)” value in data set [3] (morning of day 1 vs day 8, bell-shaped dose response) is on record as “clear activity”. In data set [3] (multiple oral doses, 7 days), the “incidence of adverse events, active vs placebo” value was “no observable trends”; the “vital signs, ECG, physical examination and clinical laboratory assessments” value is on record as “no clinically significant changes”. Also, the “mean serum NEFA compared to placebo” value in data set [4] (2 hours post dose, all AOD9604 doses (25, 50, 100 μg/kg iv)) was “rose more”. Moreover, in data set [4] (after a single iv dose of active drug), the severity of euphoria result is given as “mild to moderate euphoria; also recorded: mild or moderate euphoria”. Further, the “weight loss in older patients compared to placebo” value in data set [4] (aged 35+ (N=13), highest dose 100 μg/kg iv) was “highly significant weight loss”. Besides, the “body weight change compared to placebo” value in data set [4] (measured 1 week after each iv dose) was “lower in the treated groups than in those receiving placebo”. In data set [4] (patients aged 35+, 2 hours post dose), the “significance of NEFA effect in older patients” value is “highly significant”. Besides, in data set [4] (setting [5]), the “subjects experiencing euphoria (number of subjects)” value is 5/23 and the “subjects experiencing euphoria (percentage)” value stood at 21.7%.

“hGH 177-191: synthetic peptide corresponding to amino acid residues 177-191 of the human growth hormone sequence (LRIVQCRSVEGSCGF; UniProt P01241 203-217, looked up, fragment)”: the “body weight gain and adipose tissue mass” value in the data set with C57Bl/6J (Ob/Ob) mouse was “reduce body weight gain and adipose tissue mass”.
